Data: ChEMBL document CHEMBL4699525, “Design and synthesis of new indanol-1,2,3-triazole derivatives as potent antitubercular and antimicrobial agents” (Bioorg Med Chem Lett, 2020)
In brackets after ≈: the same amount, converted by molar mass. Activity calls are given as the source filed them. The calls are words filed in the database; no cut-off is given here.

Experiments:
[1] = test system: Bacillus cereus; experiment: Antibacterial activity against Bacillus cereus assessed as inhibition of bacterial growth incubated for 24 hrs by agar well diffusion method; type: functional
[2] = test system: Escherichia coli; experiment: Antibacterial activity against Escherichia coli assessed as inhibition of bacterial growth incubated for 24 hrs by agar well diffusion method; type: functional
[3] = test system: Klebsiella aerogenes; experiment: Antibacterial activity against Enterobacter aerogenes assessed as inhibition of bacterial growth incubated for 24 hrs by agar well diffusion method; type: functional
[4] = target: T1, Enoyl-[acyl-carrier-protein] reductase [NADH] (Mycobacterium tuberculosis) (UniProt P9WGR1); experiment: Inhibition of InhA in Mycobacterium tuberculosis H37Rv assessed antitubercular activity by measuring inhibition of bacterial growth incubated for 7 days by MABA assay; details: time 7.0 day
T1 sequence (whole entry): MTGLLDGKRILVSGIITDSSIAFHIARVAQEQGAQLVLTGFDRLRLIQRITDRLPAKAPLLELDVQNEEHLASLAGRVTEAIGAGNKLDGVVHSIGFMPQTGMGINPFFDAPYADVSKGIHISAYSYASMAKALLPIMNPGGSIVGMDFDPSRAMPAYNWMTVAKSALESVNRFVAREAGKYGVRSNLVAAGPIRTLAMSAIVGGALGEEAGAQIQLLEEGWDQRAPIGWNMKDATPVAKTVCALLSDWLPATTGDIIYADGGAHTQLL

[5] = test system: Saccharomyces cerevisiae; experiment: Antifungal activity against Saccharomyces cerevisiae assessed as inhibition of fungal growth incubated for 24 hrs by agar well diffusion method; type: functional
[6] = test system: Staphylococcus aureus; experiment: Antibacterial activity against Staphylococcus aureus assessed as inhibition of bacterial growth incubated for 24 hrs by agar well diffusion method; type: functional
[7] = test system: Salmonella typhi; experiment: Antibacterial activity against Salmonella typhi assessed as inhibition of bacterial growth incubated for 24 hrs by agar well diffusion method; type: functional; details: Salmonella enterica subsp. enterica serovar Typhi
[8] = test system: Pseudomonas aeruginosa; experiment: Antibacterial activity against Pseudomonas aeruginosa assessed as inhibition of bacterial growth incubated for 24 hrs by agar well diffusion method; type: functional
[9] = test system: Bacillus subtilis; experiment: Antibacterial activity against Bacillus subtilis assessed as inhibition of bacterial growth incubated for 24 hrs by agar well diffusion method; type: functional
[10] = test system: Salmonella enterica subsp. enterica serovar Abony; experiment: Antibacterial activity against Salmonella abony assessed as inhibition of bacterial growth incubated for 24 hrs by agar well diffusion method; type: functional
[11] = test system: Shigella boydii; experiment: Antibacterial activity against Shigella boydii assessed as inhibition of bacterial growth incubated for 24 hrs by agar well diffusion method; type: functional
[12] = test system: Aspergillus niger; experiment: Antifungal activity against Aspergillus niger assessed as inhibition of fungal growth incubated for 24 hrs by agar well diffusion method; type: functional
[13] = test system: Candida albicans; experiment: Antifungal activity against Candida albicans assessed as inhibition of fungal growth incubated for 24 hrs by agar well diffusion method; type: functional

Row | SMILES | diameter of the inhibition zone (DIZ) [1] | diameter of the inhibition zone (DIZ) [2] | diameter of the inhibition zone (DIZ) [3] | MIC [4] [µM] | diameter of the inhibition zone (DIZ) [5] | diameter of the inhibition zone (DIZ) [6] | diameter of the inhibition zone (DIZ) [7] | diameter of the inhibition zone (DIZ) [8] | diameter of the inhibition zone (DIZ) [9] | diameter of the inhibition zone (DIZ) [10] | diameter of the inhibition zone (DIZ) [11] | diameter of the inhibition zone (DIZ) [12] | diameter of the inhibition zone (DIZ) [13]
1 | Brc1ccc(-n2cc(COc3ccc4c(c3)CCC4)nn2)cc1 | inactive | 8 mm | inactive | > 25 | 7 mm | inactive | inactive | inactive | inactive | inactive | inactive | inactive | 11 mm
2 | COc1ccc(NC(=O)Cn2cc(COc3ccc4c(c3)CCC4)nn2)cc1 | inactive | inactive | inactive | > 25 | inactive | inactive | inactive | inactive | inactive | inactive | inactive | inactive | inactive
3 | Cc1ccccc1NC(=O)Cn1cc(COc2ccc3c(c2)CCC3)nn1 | inactive | inactive | inactive | > 25 | inactive | inactive | inactive | inactive | inactive | inactive | 11 mm | inactive | inactive
4 | O=C(Cn1cc(COc2ccc3c(c2)CCC3)nn1)Nc1ccccc1Cl | inactive | inactive | inactive | > 25 | inactive | inactive | inactive | inactive | inactive | inactive | – | inactive | inactive
5 | Cc1ccc([N+](=O)[O-])cc1NC(=O)Cn1cc(COc2ccc3c(c2)CCC3)nn1 | inactive | inactive | 12 mm | > 25 | inactive | inactive | inactive | 9 mm | inactive | inactive | 9 mm | inactive | inactive
6 | Cc1ccc(NC(=O)Cn2cc(COc3ccc4c(c3)CCC4)nn2)cc1 | inactive | inactive | inactive | > 25 | inactive | 8 mm | inactive | inactive | inactive | inactive | inactive | inactive | 12 mm
7 | Cc1cc([N+](=O)[O-])ccc1NC(=O)Cn1cc(COc2ccc3c(c2)CCC3)nn1 | inactive | inactive | inactive | > 25 | inactive | inactive | inactive | inactive | inactive | inactive | – | inactive | inactive
8 | COc1cccc(NC(=O)Cn2cc(COc3ccc4c(c3)CCC4)nn2)c1 | inactive | inactive | inactive | > 25 | inactive | inactive | inactive | inactive | inactive | inactive | 15 mm | inactive | inactive
9 | CC[C@@H](CO)NCCN[C@@H](CC)CO | – | – | – | 3.12 (≈ 0.638 µg/mL) | – | – | – | – | – | – | – | – | –
10 | Cc1ccc(NC(=O)Cn2cc(COc3ccc4c(c3)CCC4)nn2)c(C)c1 | inactive | inactive | inactive | > 25 | inactive | inactive | inactive | inactive | inactive | inactive | 13 mm | inactive | inactive
11 | Clc1ccc(-n2cc(COc3ccc4c(c3)CCC4)nn2)cc1 | inactive | inactive | inactive | > 25 | 8 mm | 8 mm | inactive | inactive | inactive | inactive | inactive | inactive | 10 mm
12 | Cc1ccc(-n2cc(COc3ccc4c(c3)CCC4)nn2)cc1 | inactive | inactive | inactive | > 25 | inactive | inactive | inactive | inactive | inactive | inactive | inactive | inactive | 12 mm
13 | O=C(O)c1cn(C2CC2)c2cc(N3CCNCC3)c(F)cc2c1=O | – | – | – | 1.56 (≈ 0.517 µg/mL) | – | – | – | – | – | – | – | – | –
14 | O=C(Cn1cc(COc2ccc3c(c2)CCC3)nn1)Nc1ccc(Br)cc1 | inactive | inactive | 12 mm | > 25 | 12 mm | inactive | inactive | 5 mm | inactive | inactive | 13 mm | inactive | inactive
15 | CCc1ccc(NC(=O)Cn2cc(COc3ccc4c(c3)CCC4)nn2)cc1 | inactive | inactive | inactive | > 25 | inactive | inactive | inactive | inactive | inactive | inactive | 11 mm | inactive | inactive
16 | CCc1ccc(-n2cc(COc3ccc4c(c3)CCC4)nn2)cc1 | inactive | inactive | inactive | > 25 | – | 7 mm | inactive | inactive | inactive | inactive | inactive | inactive | 13 mm
